From the supplement of paper PMC10307832

Assays:
Experiment in all cases: relative viability (nuclei count vs DMSO), 5 days (fraction); higher = more cells survive
Cediranib + Tozasertib = compound: COc1cc2c(Oc3ccc4[nH]c(C)cc4c3F)ncnc2cc1OCCCN1CCCC1 [Cediranib] + Cc1cc(Nc2cc(N3CCN(C)CC3)nc(Sc3ccc(NC(=O)C4CC4)cc3)n2)n[nH]1 [Tozasertib] (partner 0.1 µM)
Procedure, shortened: (§1)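 Nuclei were stained with Hoechst during a one-step fixation (final 0.05% Triton X-100, 1% formaldehyde, 1 ug/ml Hoechst) carried out 5 days after dosing, then counted on 4× images. The cells, lung cancer lines in 1536-well plates, had been dosed by pin tool the day after seeding with one drug alone or a fixed anchor-drug dose plus five library-drug doses (not always all listed) in √10 steps. Relative viability is the nuclei count in treated wells divided by that in vehicle wells, and each value is the median of duplicate plates.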

Cediranib + Dasatinib = compound: COc1cc2c(Oc3ccc4[nH]c(C)cc4c3F)ncnc2cc1OCCCN1CCCC1 [Cediranib] + Cc1nc(Nc2ncc(C(=O)Nc3c(C)cccc3Cl)s2)cc(N2CCN(CCO)CC2)n1 [Dasatinib] (partner 0.075 µM)
Procedure, shortened: as §1

Decitabine + Trametinib = compound: Nc1ncn([C@H]2C[C@H](O)[C@@H](CO)O2)c(=O)n1 [Decitabine] + CC(=O)Nc1cccc(-n2c(=O)n(C3CC3)c(=O)c3c(Nc4ccc(I)cc4F)n(C)c(=O)c(C)c32)c1 [Trametinib] (partner 0.02 µM)
Procedure, shortened: as §1

Cediranib + Trametinib = compound: COc1cc2c(Oc3ccc4[nH]c(C)cc4c3F)ncnc2cc1OCCCN1CCCC1 [Cediranib] + CC(=O)Nc1cccc(-n2c(=O)n(C3CC3)c(=O)c3c(Nc4ccc(I)cc4F)n(C)c(=O)c(C)c32)c1 [Trametinib] (partner 0.02 µM)
Procedure, shortened: as §1

| Cell Line | relative viability (Cediranib + Tozasertib; first compound 0.04 µM) | relative viability (Cediranib + Tozasertib; first compound 0.1265 µM) | relative viability (Cediranib + Tozasertib; first compound 0.4 µM) | relative viability (Cediranib + Tozasertib; first compound 1.265 µM) | relative viability (Cediranib + Tozasertib; first compound 4 µM) | relative viability (Cediranib + Dasatinib; first compound 0.04 µM) | relative viability (Cediranib + Dasatinib; first compound 0.1265 µM) | relative viability (Cediranib + Dasatinib; first compound 0.4 µM) | relative viability (Cediranib + Dasatinib; first compound 1.265 µM) | relative viability (Cediranib + Dasatinib; first compound 4 µM) | relative viability (Decitabine + Trametinib; first compound 0.04 µM) | relative viability (Decitabine + Trametinib; first compound 0.1265 µM) | relative viability (Decitabine + Trametinib; first compound 0.4 µM) | relative viability (Decitabine + Trametinib; first compound 4 µM) | relative viability (Cediranib + Trametinib; first compound 0.04 µM) | relative viability (Cediranib + Trametinib; first compound 0.1265 µM) | relative viability (Cediranib + Trametinib; first compound 0.4 µM) | relative viability (Cediranib + Trametinib; first compound 1.265 µM) | relative viability (Cediranib + Trametinib; first compound 4 µM) | relative viability (Decitabine + Trametinib; first compound 1.265 µM) |
| --- | --- | --- | --- | --- | --- | --- | --- | --- | --- | --- | --- | --- | --- | --- | --- | --- | --- | --- | --- | --- |
| 201T | 1.1 | 1.19 | 0.875 | 0.966 | 0.889 | 0.622 | 0.67 | 0.628 | 0.575 | 0.582 | 0.739 | 0.721 | 0.773 | 0.708 | 0.705 | 0.792 | 0.707 | 0.719 | 0.724 |  |
| A-427 | 0.208 |  | 0.198 | 0.237 | 0.217 | 0.683 |  | 0.672 | 0.596 | 0.919 | 0.594 | 0.677 | 0.461 | 0.401 | 0.747 |  | 0.717 | 0.684 | 0.737 | 0.394 |
| ABC-1 | 0.161 | 0.179 | 0.186 |  | 0.191 | 0.536 | 0.651 | 0.448 | 0.474 | 0.457 |  |  |  |  |  |  |  |  |  |  |
| BEN | 0.446 |  | 0.554 |  | 0.627 | 0.331 |  | 0.362 | 0.229 | 0.332 | 1.1 | 0.947 | 0.772 | 0.622 | 1.12 | 0.936 | 1.02 | 1.02 | 0.986 | 0.558 |
| CAL-12T | 0.333 | 0.333 | 0.29 | 0.397 | 0.293 | 0.438 | 0.285 | 0.504 | 0.489 | 0.364 | 0.303 | 0.361 | 0.217 | 0.294 | 0.443 | 0.362 | 0.319 | 0.248 | 0.341 | 0.265 |
| COR-L23 | 0.182 | 0.192 | 0.19 | 0.264 | 0.183 | 0.522 | 0.503 | 0.499 | 0.57 | 0.662 | 0.374 | 0.452 | 0.321 | 0.23 | 0.608 | 0.578 | 0.573 | 0.425 | 0.532 | 0.219 |
| COR-L 105 | 0.392 | 0.364 | 0.343 | 0.329 | 0.388 | 0.346 | 0.375 | 0.388 | 0.352 | 0.368 | 0.411 | 0.461 | 0.451 | 0.383 | 0.438 | 0.478 | 0.415 | 0.384 | 0.43 | 0.429 |
| ChaGo-K-1 | 0.214 | 0.263 | 0.236 | 0.202 | 0.209 | 0.524 | 0.508 | 0.608 | 0.578 | 0.626 | 0.729 | 0.628 | 0.5 | 0.62 | 0.875 | 0.821 | 0.878 | 0.868 | 0.909 | 0.434 |
| EKVX | 0.349 | 0.502 | 0.366 | 0.436 | 0.473 | 0.534 | 0.625 | 0.564 | 0.582 | 0.591 | 0.254 | 0.25 | 0.259 | 0.23 | 0.283 | 0.4 | 0.343 |  | 0.402 | 0.221 |
| EMC-BAC-2 | 0.284 | 0.238 | 0.278 | 0.286 | 0.3 | 0.316 | 0.603 | 0.365 | 0.309 | 0.314 |  | 0.935 | 0.795 | 0.8 | 0.823 |  | 0.842 | 0.82 | 0.923 | 0.841 |
| EPLC-272H | 0.267 |  | 0.31 |  | 0.297 | 0.303 |  | 0.363 |  | 0.43 | 0.293 | 0.29 |  | 0.234 | 0.318 |  | 0.278 | 0.269 | 0.242 | 0.251 |
| H3255 | 0.578 |  | 0.599 | 0.654 | 0.43 | 0.409 |  | 0.332 | 0.302 | 0.36 |  | 0.686 | 0.506 | 0.46 | 0.606 |  | 0.623 |  | 0.567 | 0.5 |
| HARA | 0.125 |  | 0.107 | 0.118 | 0.123 | 0.193 |  | 0.247 | 0.237 | 0.239 | 0.285 | 0.454 | 0.491 | 0.304 | 0.803 | 0.81 | 0.62 | 0.882 | 0.831 | 0.228 |
| HCC-15 | 0.507 |  | 0.391 | 0.36 | 0.358 | 0.662 |  | 0.585 | 0.707 | 0.608 | 0.4 | 0.399 | 0.353 | 0.313 | 0.389 |  | 0.362 | 0.337 | 0.404 | 0.338 |
| HCC-44 |  |  | 0.893 | 1.05 | 0.831 |  |  |  |  |  | 1.04 | 0.991 | 0.833 | 0.75 | 1.2 | 0.907 | 1.1 | 1.05 | 1.07 | 0.819 |
| HCC-78 | 0.448 | 0.474 | 0.512 | 0.54 | 0.441 | 0.376 | 0.363 | 0.405 | 0.29 | 0.406 | 0.758 | 0.688 | 0.581 | 0.451 | 0.742 | 1.02 | 0.721 | 0.915 | 0.919 | 0.544 |
| HCC-366 | 0.114 | 0.0898 | 0.125 | 0.136 | 0.147 | 0.649 | 0.622 | 0.553 | 0.636 | 0.711 | 0.361 | 0.334 | 0.258 | 0.109 | 0.384 | 0.404 | 0.301 | 0.327 | 0.398 | 0.12 |
| HCC-827 | 0.529 |  | 0.407 | 0.414 | 0.351 | 0.284 |  | 0.226 | 0.309 | 0.275 | 0.222 | 0.378 | 0.322 | 0.344 | 0.6 | 0.791 | 0.529 | 0.539 | 0.497 | 0.257 |
